Patent publication US20230085307A1, “PYRIDAZINONE COMPOUND AND HERBICIDE” (NISSAN CHEMICAL CORPORATION, priority 2019, published 2023)

Key:
green foxtail = assay: Test Example 5: herbicidal effect by foliage application, plastic box (Table 20, symbol G); assay type: in vivo, green foxtail (Setaria viridis)
Summary of the method: (§1)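 Post-emergence foliar test in sterilized diluvial soil. Compound applied as water-diluted emulsion at a predetermined rate to 14-day-old plants; evaluation at three weeks.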

Italian ryegrass = assay: Test Example 5: herbicidal effect by foliage application, plastic box (Table 20, symbol K); assay type: in vivo, Italian ryegrass (Lolium multiflorum)
Summary of the method: as §1

wild oat = assay: Test Example 5: herbicidal effect by foliage application, plastic box (Table 20, symbol I); assay type: in vivo, wild oat (Avena fatua)
Summary of the method: as §1

blackgrass = assay: Test Example 5: herbicidal effect by foliage application, plastic box (Table 20, symbol J); assay type: in vivo, blackgrass (Alopecurus myosuroides)
Summary of the method: as §1

false cleavers = assay: Test Example 5: herbicidal effect by foliage application, plastic box (Table 20, symbol Q); assay type: in vivo, false cleavers (Galium spurium)
Text: [Test Example 5] Herbicidal Effect Test by Foliage Application
Sterilized diluvial soil was placed in a plastic box having a length of 21 cm, a width of 13 cm, and a depth of 7 cm. The seeds of each of southern crabgrass, green foxtail, barnyard grass, wild oat, blackgrass, Italian ryegrass, windgrass, velvetleaf, redroot pigweed, lambsquarters, chickweed, false cleavers, persian speedwell, corn, soybean, rice, wheat, beet, and rapeseed were sowed in a spot-like manner and covered with the soil having a thickness of about 1.5 cm. Thereafter, the plants were grown in a greenhouse at 25° C. to 30° C. After 14-day growth of the plants, the emulsion agent of the compound of the present invention prepared according to Formulation Example 2 was diluted with water so as to achieve a predetermined herbicide amount, and the diluted emulsion agent was uniformly applied to a foliage part with a small-sized spray. Three weeks after the herbicide application, the effect of the herbicide on each plant was evaluated according to the criteria of Test Example 1.

windgrass = assay: Test Example 5: herbicidal effect by foliage application, plastic box (Table 20, symbol L); assay type: in vivo, windgrass (Apera spica-venti)
Summary of the method: as §1

barnyard grass [1] = assay: Test Example 3: herbicidal effect by foliage application, Wagner pot (Table 18, symbol H); assay type: in vivo, barnyard grass (Echinochloa crus-galli)
Summary of the method: (§2)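 Plants were sown in alluvial soil held under 0.1–0.5 cm standing water and grown 14 days in a greenhouse at 25–30 °C. An emulsifiable formulation, water-diluted to the set dose, was then sprayed onto the foliage, and effects were scored three weeks later using previously defined criteria.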

southern crabgrass = assay: Test Example 5: herbicidal effect by foliage application, plastic box (Table 20, symbol F); assay type: in vivo, southern crabgrass (Digitaria ciliaris)
Summary of the method: as §1

Chinese sprangletop = assay: Test Example 3: herbicidal effect by foliage application, Wagner pot (Table 18, symbol D); assay type: in vivo, chinese sprangletop (Leptochloa chinensis)
Summary of the method: as §2

chickweed = assay: Test Example 5: herbicidal effect by foliage application, plastic box (Table 20, symbol P); assay type: in vivo, common chickweed (Stellaria media)
Summary of the method: as §1

barnyard grass [2] = assay: Test Example 5: herbicidal effect by foliage application, plastic box (Table 20, symbol H); assay type: in vivo, barnyard grass (Echinochloa crus-galli)
Summary of the method: as §1

persian speedwell = assay: Test Example 5: herbicidal effect by foliage application, plastic box (Table 20, symbol R); assay type: in vivo, Persian speedwell (Veronica persica)
Summary of the method: as §1

velvetleaf = assay: Test Example 5: herbicidal effect by foliage application, plastic box (Table 20, symbol M); assay type: in vivo, velvetleaf (Abutilon theophrasti)
Summary of the method: as §1

rice flat sedge = assay: Test Example 3: herbicidal effect by foliage application, Wagner pot (Table 18, symbol E); assay type: in vivo, rice flat sedge (Cyperus iria)
Summary of the method: as §2

redroot pigweed = assay: Test Example 5: herbicidal effect by foliage application, plastic box (Table 20, symbol N); assay type: in vivo, redroot pigweed (Amaranthus retroflexus)
Summary of the method: as §1

lambsquarters = assay: Test Example 5: herbicidal effect by foliage application, plastic box (Table 20, symbol O); assay type: in vivo, lambsquarters (Chenopodium album)
Summary of the method: as §1

[3] = 320 g/ha, foliage application after 14-day growth, evaluated three weeks after application
[4] = foliage application, AAH 197 g/ha, three weeks after application

COc1cccc(-c2sc3c(Cl)cccc3c2-c2c(O)c(C)nn(C)c2=O)c1 [4-064]
herbicidal effect on G: green foxtail (evaluation grade 0-5) (green foxtail; [3]): 3 (Herbicidal rate of 40% or more and less than 70%) | herbicidal effect on K: Italian ryegrass (evaluation grade 0-5) (Italian ryegrass; [3]): 3 (Herbicidal rate of 40% or more and less than 70%) | herbicidal effect on I: wild oat (evaluation grade 0-5) (wild oat; [3]): 0 (Herbicidal rate of 5% or less (almost no effect)) | herbicidal effect on J: blackgrass (evaluation grade 0-5) (blackgrass; [3]): 0 (Herbicidal rate of 5% or less (almost no effect)) | herbicidal effect on Q: false cleavers (evaluation grade 0-5) (false cleavers; [3]): 1 (Herbicidal rate of 5% or more and less than 20%) | herbicidal effect on L: windgrass (evaluation grade 0-5) (windgrass; [3]): 5 (Herbicidal rate of 90% or more (almost completely withered)) | herbicidal effect on barnyard grass (H) (barnyard grass [1]; 320 g/ha): 4 (Herbicidal rate of 70% or more and less than 90%) | herbicidal effect on F: southern crabgrass (evaluation grade 0-5) (southern crabgrass; [3]): 1 (Herbicidal rate of 5% or more and less than 20%) | herbicidal effect on Chinese sprangletop (D) (Chinese sprangletop; 320 g/ha): 3 (Herbicidal rate of 40% or more and less than 70%) | herbicidal effect on P: chickweed (evaluation grade 0-5) (chickweed; [3]): 5 (Herbicidal rate of 90% or more (almost completely withered)) | herbicidal effect on H: barnyard grass (evaluation grade 0-5) (barnyard grass [2]; [3]): 1 (Herbicidal rate of 5% or more and less than 20%) | herbicidal effect on R: persian speedwell (evaluation grade 0-5) (persian speedwell; [3]): 5 (Herbicidal rate of 90% or more (almost completely withered)) | herbicidal effect on M: velvetleaf (evaluation grade 0-5) (velvetleaf; [3]): 3 (Herbicidal rate of 40% or more and less than 70%) | herbicidal effect on rice flat sedge (E) (rice flat sedge; 320 g/ha): 4 (Herbicidal rate of 70% or more and less than 90%) | herbicidal effect on N: redroot pigweed (evaluation grade 0-5) (redroot pigweed; [3]): 5 (Herbicidal rate of 90% or more (almost completely withered)) | herbicidal effect on O: lambsquarters (evaluation grade 0-5) (lambsquarters; [3]): 3 (Herbicidal rate of 40% or more and less than 70%)

Cc1nn(C)c(=O)c(-c2c(-c3cc4c(cc3Cl)OCCO4)sc3ccccc23)c1O [1-095]
G: green foxtail, herbicidal effect (green foxtail; [4]): 0 (Herbicidal rate of 5% or less (almost no effect)) | K: Italian ryegrass, herbicidal effect (Italian ryegrass; [4]): 0 (Herbicidal rate of 5% or less (almost no effect)) | I: wild oat, herbicidal effect (wild oat; [4]): 0 (Herbicidal rate of 5% or less (almost no effect)) | J: blackgrass, herbicidal effect (blackgrass; [4]): 0 (Herbicidal rate of 5% or less (almost no effect)) | Q: false cleavers, herbicidal effect (false cleavers; [4]): 3 (Herbicidal rate of 40% or more and less than 70%) | L: windgrass, herbicidal effect (windgrass; [4]): 0 (Herbicidal rate of 5% or less (almost no effect)) | herbicidal effect on H (barnyard grass), rating 0-5 (barnyard grass [1]; 197 g/ha): 4 (Herbicidal rate of 70% or more and less than 90%) | F: southern crabgrass, herbicidal effect (southern crabgrass; [4]): 0 (Herbicidal rate of 5% or less (almost no effect)) | herbicidal effect on D (Chinese sprangletop), rating 0-5 (Chinese sprangletop; 197 g/ha): 0 (Herbicidal rate of 5% or less (almost no effect)) | P: chickweed, herbicidal effect (chickweed; [4]): 3 (Herbicidal rate of 40% or more and less than 70%) | H: barnyard grass, herbicidal effect (barnyard grass [2]; [4]): 0 (Herbicidal rate of 5% or less (almost no effect)) | R: persian speedwell, herbicidal effect (persian speedwell; [4]): 4 (Herbicidal rate of 70% or more and less than 90%) | M: velvetleaf, herbicidal effect (velvetleaf; [4]): 0 (Herbicidal rate of 5% or less (almost no effect)) | herbicidal effect on E (rice flat sedge), rating 0-5 (rice flat sedge; 197 g/ha): 1 (Herbicidal rate of 5% or more and less than 20%) | N: redroot pigweed, herbicidal effect (redroot pigweed; [4]): 0 (Herbicidal rate of 5% or less (almost no effect)) | O: lambsquarters, herbicidal effect (lambsquarters; [4]): 0 (Herbicidal rate of 5% or less (almost no effect))
